Experimental data reported in ChEMBL document CHEMBL4368922 (Bioorg Med Chem Lett, 2019).
pIC50: −log10 of the molar value.

Key:
[1] = target: T1, Lysine-specific histone demethylase 1A (Homo sapiens, UniProt O60341)
Description: (§1) Inhibition of recombinant human LSD1 (172 to 852 residues) using biotin-labelled H3K4me2 (1 to 24 residues) after 1 hr by TR-FRET assay

[2] = target: Menin/Histone-lysine N-methyltransferase MLL (Homo sapiens, UniProt O00255)
Description: (§2) Inhibition of full length human menin/FAM-tagged MLL1 (unknown origin) protein-protein interaction after 15 mins by fluorescence polarization assay

[3] = target: T2, Amine oxidase [flavin-containing] A (Homo sapiens, UniProt P21397)
T2 sequence (P21397 whole entry): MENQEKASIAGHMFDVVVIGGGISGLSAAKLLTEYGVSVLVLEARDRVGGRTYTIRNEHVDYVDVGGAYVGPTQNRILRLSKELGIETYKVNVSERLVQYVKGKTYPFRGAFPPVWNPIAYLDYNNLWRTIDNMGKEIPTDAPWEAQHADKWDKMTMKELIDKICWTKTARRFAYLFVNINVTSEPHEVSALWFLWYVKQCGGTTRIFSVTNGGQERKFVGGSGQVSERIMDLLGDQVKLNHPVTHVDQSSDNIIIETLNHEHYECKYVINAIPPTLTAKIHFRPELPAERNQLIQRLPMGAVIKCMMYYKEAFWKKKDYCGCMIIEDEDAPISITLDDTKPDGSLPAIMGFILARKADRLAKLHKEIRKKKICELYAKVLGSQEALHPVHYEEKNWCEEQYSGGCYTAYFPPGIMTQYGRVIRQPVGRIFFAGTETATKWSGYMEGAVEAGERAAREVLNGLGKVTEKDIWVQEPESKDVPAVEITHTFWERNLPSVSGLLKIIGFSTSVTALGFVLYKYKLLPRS
Description: (§3) Inhibition of MAOA (unknown origin) by Promega MAO-Glo assay

[4] = target: T3, Amine oxidase [flavin-containing] B (Homo sapiens, UniProt P27338)
T3 sequence (P27338 whole entry): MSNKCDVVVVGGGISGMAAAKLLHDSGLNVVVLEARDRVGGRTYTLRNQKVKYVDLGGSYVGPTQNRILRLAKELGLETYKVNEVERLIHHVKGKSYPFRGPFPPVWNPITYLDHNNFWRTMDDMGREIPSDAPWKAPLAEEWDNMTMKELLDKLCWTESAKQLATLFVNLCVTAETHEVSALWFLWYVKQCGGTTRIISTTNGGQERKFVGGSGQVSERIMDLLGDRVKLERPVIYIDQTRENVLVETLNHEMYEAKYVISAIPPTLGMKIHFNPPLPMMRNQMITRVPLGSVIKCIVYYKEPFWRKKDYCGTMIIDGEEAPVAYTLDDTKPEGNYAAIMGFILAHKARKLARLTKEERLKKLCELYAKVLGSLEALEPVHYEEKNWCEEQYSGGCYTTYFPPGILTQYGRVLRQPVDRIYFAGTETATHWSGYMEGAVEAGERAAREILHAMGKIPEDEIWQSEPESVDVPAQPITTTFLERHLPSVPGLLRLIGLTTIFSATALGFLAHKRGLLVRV
Description: (§4) Inhibition of MAOB (unknown origin) by Promega MAO-Glo assay

MV4-11 [5] = test: cells; details: Homo sapiens, MV4-11, 168 h
Description: Antiproliferative activity against human MV4-11 cells after 168 hrs by MTS assay

MV4-11 [6] = test: Antiproliferative activity against human MV4-11 cells after 240 hrs by MTS assay; type: functional, cell-based; details: MV4-11, 240 h
[7] = target: Menin/Histone-lysine N-methyltransferase MLL (Homo sapiens, UniProt O00255+Q03164)
Description: as §2

[8] = target: T1, Lysine-specific histone demethylase 1A; remark: listed apart in the source
Description: as §1

[9] = target: T2, Amine oxidase [flavin-containing] A; remark: listed apart in the source
Description: as §3

[10] = target: T3, Amine oxidase [flavin-containing] B; remark: listed apart in the source
Description: as §4

[11] = target: T1, Lysine-specific histone demethylase 1A; test: Inhibition of LSD1 in human MV4-11 cells assessed as increase in CD86 mRNA expression at 500 nM by SYBR Green dye-bsed RT-qPCR analysis relative to control; type: cell-based
[12] = target: T1, Lysine-specific histone demethylase 1A; test: Inhibition of LSD1 in human MV4-11 cells assessed as increase in CD86 mRNA expression at 100 nM by SYBR Green dye-bsed RT-qPCR analysis relative to control; type: cell-based

Menin/Histone-lysine N-methyltransferase MLL (Homo sapiens, UniProt O00255), sequence (O00255 whole entry): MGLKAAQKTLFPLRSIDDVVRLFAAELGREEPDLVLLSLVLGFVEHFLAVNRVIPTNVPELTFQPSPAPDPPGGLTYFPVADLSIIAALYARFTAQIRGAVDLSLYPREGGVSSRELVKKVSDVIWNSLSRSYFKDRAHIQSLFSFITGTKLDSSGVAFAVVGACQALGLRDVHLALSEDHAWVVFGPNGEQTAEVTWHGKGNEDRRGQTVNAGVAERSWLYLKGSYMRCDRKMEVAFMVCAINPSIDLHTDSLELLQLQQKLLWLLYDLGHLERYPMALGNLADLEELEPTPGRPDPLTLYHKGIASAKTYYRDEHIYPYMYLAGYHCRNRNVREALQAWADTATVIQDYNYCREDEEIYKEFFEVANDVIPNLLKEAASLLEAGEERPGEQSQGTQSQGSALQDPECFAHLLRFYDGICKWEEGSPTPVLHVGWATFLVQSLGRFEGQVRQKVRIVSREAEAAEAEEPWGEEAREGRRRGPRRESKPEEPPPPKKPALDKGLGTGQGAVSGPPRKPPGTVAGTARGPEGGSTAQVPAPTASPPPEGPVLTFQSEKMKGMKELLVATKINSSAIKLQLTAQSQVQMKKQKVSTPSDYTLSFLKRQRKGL
Menin/Histone-lysine N-methyltransferase MLL (Homo sapiens, UniProt O00255), sequence (Q03164 1-2718 partner limits assumed): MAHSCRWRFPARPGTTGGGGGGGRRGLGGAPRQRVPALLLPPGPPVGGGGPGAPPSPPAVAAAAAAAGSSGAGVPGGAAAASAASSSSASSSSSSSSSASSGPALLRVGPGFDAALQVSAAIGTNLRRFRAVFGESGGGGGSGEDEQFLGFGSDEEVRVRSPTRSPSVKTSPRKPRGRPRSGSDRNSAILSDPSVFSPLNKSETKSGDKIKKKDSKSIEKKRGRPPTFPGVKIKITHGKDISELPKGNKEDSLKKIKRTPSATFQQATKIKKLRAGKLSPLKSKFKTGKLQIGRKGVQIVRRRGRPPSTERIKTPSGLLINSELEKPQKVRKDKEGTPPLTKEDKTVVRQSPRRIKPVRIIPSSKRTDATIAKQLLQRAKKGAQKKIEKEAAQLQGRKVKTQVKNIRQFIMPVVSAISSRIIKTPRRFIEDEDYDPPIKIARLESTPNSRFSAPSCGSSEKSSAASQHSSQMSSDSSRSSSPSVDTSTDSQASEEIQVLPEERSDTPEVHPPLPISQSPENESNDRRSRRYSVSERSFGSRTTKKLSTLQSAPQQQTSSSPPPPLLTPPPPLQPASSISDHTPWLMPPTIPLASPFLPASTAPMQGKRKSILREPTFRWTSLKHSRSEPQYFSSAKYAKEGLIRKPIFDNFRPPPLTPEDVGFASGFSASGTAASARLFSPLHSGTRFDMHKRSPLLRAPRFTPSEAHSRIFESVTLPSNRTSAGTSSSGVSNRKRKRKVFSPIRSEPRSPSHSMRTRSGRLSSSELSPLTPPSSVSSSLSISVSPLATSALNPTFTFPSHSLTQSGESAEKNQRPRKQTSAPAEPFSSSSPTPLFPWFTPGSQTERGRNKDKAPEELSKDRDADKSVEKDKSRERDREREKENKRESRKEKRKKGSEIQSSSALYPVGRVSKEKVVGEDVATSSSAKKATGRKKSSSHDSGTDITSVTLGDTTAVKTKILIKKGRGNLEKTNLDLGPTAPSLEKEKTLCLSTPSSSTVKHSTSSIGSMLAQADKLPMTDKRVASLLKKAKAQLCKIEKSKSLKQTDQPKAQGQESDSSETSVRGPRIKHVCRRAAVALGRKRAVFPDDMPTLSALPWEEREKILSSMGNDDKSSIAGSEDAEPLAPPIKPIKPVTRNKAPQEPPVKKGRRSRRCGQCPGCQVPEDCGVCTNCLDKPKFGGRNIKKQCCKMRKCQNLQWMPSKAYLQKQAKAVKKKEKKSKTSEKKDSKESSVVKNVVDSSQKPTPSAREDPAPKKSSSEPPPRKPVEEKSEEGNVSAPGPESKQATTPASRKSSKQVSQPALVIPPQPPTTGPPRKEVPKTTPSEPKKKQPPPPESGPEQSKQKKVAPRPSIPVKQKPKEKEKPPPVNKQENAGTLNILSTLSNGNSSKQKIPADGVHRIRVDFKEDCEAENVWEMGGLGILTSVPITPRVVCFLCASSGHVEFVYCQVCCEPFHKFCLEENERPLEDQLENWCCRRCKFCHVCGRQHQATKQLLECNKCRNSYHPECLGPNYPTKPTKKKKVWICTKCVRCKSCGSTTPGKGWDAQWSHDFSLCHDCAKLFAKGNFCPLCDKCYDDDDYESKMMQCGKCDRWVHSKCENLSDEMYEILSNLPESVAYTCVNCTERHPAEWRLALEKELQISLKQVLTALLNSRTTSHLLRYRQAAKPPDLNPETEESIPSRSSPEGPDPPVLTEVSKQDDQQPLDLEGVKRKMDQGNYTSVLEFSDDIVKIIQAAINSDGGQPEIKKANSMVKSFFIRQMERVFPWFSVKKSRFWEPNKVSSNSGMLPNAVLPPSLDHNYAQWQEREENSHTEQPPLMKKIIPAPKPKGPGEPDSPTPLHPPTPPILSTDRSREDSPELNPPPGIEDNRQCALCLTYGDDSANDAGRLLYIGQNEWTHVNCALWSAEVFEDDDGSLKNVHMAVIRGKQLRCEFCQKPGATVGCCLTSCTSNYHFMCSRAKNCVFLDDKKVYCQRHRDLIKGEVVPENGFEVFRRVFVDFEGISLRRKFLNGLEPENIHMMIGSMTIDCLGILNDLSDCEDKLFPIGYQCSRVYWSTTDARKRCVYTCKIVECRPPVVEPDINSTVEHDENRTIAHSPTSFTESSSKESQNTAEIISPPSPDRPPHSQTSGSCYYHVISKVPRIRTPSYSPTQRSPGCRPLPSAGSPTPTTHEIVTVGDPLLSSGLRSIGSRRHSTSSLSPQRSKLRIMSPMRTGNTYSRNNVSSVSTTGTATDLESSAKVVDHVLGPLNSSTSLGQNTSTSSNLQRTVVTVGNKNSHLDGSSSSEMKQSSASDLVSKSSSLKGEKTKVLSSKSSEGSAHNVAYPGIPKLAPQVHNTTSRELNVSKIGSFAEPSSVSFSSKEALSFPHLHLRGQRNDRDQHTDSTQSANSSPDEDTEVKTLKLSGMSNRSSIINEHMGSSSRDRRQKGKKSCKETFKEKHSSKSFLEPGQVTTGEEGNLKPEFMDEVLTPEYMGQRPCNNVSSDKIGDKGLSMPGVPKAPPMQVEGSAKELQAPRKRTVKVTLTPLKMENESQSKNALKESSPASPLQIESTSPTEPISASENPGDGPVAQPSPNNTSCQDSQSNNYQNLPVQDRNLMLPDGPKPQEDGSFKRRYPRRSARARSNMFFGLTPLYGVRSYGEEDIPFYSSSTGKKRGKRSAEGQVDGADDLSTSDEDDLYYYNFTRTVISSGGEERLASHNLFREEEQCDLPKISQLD
Menin/Histone-lysine N-methyltransferase MLL (Homo sapiens, UniProt O00255), sequence (Q03164 2719-3969 partner limits assumed): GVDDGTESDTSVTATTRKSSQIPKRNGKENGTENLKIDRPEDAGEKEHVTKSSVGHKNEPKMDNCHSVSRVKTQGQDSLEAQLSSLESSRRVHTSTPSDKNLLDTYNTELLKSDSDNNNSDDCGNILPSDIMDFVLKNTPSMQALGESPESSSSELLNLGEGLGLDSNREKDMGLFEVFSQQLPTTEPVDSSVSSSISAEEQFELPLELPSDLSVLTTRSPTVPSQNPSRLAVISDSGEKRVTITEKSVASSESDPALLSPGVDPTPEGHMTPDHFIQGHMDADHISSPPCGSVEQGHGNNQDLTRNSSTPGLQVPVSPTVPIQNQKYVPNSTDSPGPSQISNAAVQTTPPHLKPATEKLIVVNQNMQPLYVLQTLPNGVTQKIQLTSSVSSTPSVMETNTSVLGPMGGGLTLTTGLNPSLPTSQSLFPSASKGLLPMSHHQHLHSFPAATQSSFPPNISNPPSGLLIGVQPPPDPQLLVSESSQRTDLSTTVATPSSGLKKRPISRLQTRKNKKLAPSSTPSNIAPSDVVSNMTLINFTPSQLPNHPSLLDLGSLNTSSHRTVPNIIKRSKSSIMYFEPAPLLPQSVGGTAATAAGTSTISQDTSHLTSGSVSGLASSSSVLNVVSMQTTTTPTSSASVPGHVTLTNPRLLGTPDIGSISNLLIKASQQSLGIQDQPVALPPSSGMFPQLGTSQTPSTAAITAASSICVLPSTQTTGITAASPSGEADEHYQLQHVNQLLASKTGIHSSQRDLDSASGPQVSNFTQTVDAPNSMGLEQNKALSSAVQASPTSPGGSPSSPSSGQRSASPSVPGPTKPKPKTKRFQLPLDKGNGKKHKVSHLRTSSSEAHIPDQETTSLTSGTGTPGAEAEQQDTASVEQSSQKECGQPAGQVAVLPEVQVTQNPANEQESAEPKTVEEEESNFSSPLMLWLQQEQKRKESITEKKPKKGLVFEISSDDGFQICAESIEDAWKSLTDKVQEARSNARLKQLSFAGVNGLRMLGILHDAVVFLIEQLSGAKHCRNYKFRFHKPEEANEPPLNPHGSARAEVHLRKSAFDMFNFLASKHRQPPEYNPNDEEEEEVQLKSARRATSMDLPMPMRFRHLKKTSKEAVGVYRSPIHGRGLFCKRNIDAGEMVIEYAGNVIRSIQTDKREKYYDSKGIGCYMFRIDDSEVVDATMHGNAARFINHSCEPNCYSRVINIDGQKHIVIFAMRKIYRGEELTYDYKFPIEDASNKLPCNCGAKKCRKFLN
Menin/Histone-lysine N-methyltransferase MLL (Homo sapiens, UniProt O00255+Q03164), sequence (O00255 whole entry): as the sequence (O00255 whole entry) above
Menin/Histone-lysine N-methyltransferase MLL (Homo sapiens, UniProt O00255+Q03164), sequence (Q03164 1-2718 limits assumed): as the sequence (Q03164 1-2718 partner limits assumed) above
Menin/Histone-lysine N-methyltransferase MLL (Homo sapiens, UniProt O00255+Q03164), sequence (Q03164 2719-3969 limits assumed): as the sequence (Q03164 2719-3969 partner limits assumed) above

Row | pIC50 [1] | pIC50 [2] | pIC50 [3] | pIC50 [4] | pIC50 (MV4-11 [5]) | IC50 [8] | IC50 [9] | IC50 [10] | fold change (FC) [11] | fold change (FC) [12] | SMILES | pIC50 (MV4-11 [6]) | IC50 [7]
1 | 6.16 | 4.46 | 5.08 | 4.44 | 5.14 |  |  |  |  |  | FC(F)(F)Cc1cc2c(N3CCC(N[C@H]4C[C@@H]4c4ccccc4)CC3)ncnc2s1 |  | 
2 | 7.07 | 4.76 | 5.65 | 5.94 | 4.94 |  |  |  |  |  | FC(F)(F)Cc1cc2c(N3CCC(CN[C@@H]4C[C@H]4c4ccccc4)CC3)ncnc2s1 |  | 
3 |  |  |  |  | 5.59 | Not Active | Not Active | Not Active |  |  | CC1(C)CN=C(N2CCN(c3ncnc4sc(CC(F)(F)F)cc34)CC2)S1 |  | 
4 | 6.52 | 4.43 | 4.18 | < 4.00 | 6.31 |  |  |  | 16.4 |  | FC(F)(F)Cc1cc2c(N[C@H]3CC[C@H](N[C@@H]4C[C@H]4c4ccccc4)CC3)ncnc2s1 |  | 
5 | 6.62 | < 4.00 | 4.25 | 4.02 | < 4.00 |  |  |  |  |  | Fc1ccc([C@@H]2C[C@H]2NC2CCN(c3ncnc4sc(CC(F)(F)F)cc34)CC2)cc1F |  | 
6 | 7.21 | < 4.00 | 5.04 | 5.02 | 5.22 |  |  |  |  |  | FC(F)(F)Cc1cc2c(N3CCC(CN[C@H]4C[C@@H]4c4ccccc4)CC3)ncnc2s1 |  | 
7 | 6.96 | < 4.00 | 5.39 | 5.32 | 5.53 |  |  |  |  |  | FC(F)(F)Cc1cc2c(N[C@H]3CC[C@H](CN[C@@H]4C[C@H]4c4ccccc4)CC3)ncnc2s1 |  | 
8 | 6.60 | 4.51 | 4.68 | 4.31 | < 4.00 |  |  |  |  |  | Fc1ccc([C@@H]2C[C@H]2NCC2CCN(c3ncnc4sc(CC(F)(F)F)cc34)CC2)cc1F |  | 
9 | 6.83 | < 4.00 | 4.32 | 4.15 | 5.70 |  |  |  |  |  | Fc1ccc([C@@H]2C[C@H]2N[C@H]2CC[C@H](Nc3ncnc4sc(CC(F)(F)F)cc34)CC2)cc1F |  | 
10 | 6.62 | 4.61 | < 4.00 | 4.12 | 5.47 |  |  |  |  |  | FC(F)(F)Cc1cc2c(N[C@H]3CC[C@@H](N[C@H]4C[C@@H]4c4ccccc4)CC3)ncnc2s1 |  | 
11 | 6.67 | 4.99 | 4.90 | 4.40 | 6.54 |  |  |  | 22.3 |  | FC(F)(F)Cc1cc2c(N3CCC(N[C@@H]4C[C@H]4c4ccccc4)CC3)ncnc2s1 |  | 
12 | 6.73 | < 4.00 | 4.89 | 4.54 | 5.44 |  |  |  |  |  | FC(F)(F)Cc1cc2c(N[C@H]3CC[C@H](N[C@H]4C[C@@H]4c4ccccc4)CC3)ncnc2s1 |  | 
13 | 6.91 | 4.29 | 5.34 | 5.22 | 5.60 |  |  |  |  |  | FC(F)(F)Cc1cc2c(N[C@H]3CC[C@@H](N[C@@H]4C[C@H]4c4ccccc4)CC3)ncnc2s1 |  | 
14 | 7.18 | 5.67 | 4.39 | 5.92 | 6.29 |  |  |  |  | 7.59 | Fc1ccc([C@@H]2C[C@H]2N[C@H]2CC[C@@H](Nc3ncnc4sc(CC(F)(F)F)cc34)CC2)cc1F |  | 
15 | 6.73 | < 4.00 | 5.07 | 4.66 | 5.26 |  |  |  |  |  | FC(F)(F)Cc1cc2c(N[C@H]3CC[C@H](CN[C@H]4C[C@@H]4c4ccccc4)CC3)ncnc2s1 |  | 
16 | 6.44 | < 4.00 | 4.68 | 4.69 | 5.16 |  |  |  |  |  | Fc1ccc([C@@H]2C[C@H]2NC[C@H]2CC[C@H](Nc3ncnc4sc(CC(F)(F)F)cc34)CC2)cc1F |  | 

Row | SMILES | pIC50 [1] | pIC50 [2] | pIC50 [3] | pIC50 [4] | pIC50 (MV4-11 [5]) | IC50 [8] | IC50 [9] | IC50 [10] | fold change (FC) [11] | fold change (FC) [12] | pIC50 (MV4-11 [6]) | IC50 [7]
17 | O=C(O)c1ccc(CN2CCC(CN[C@@H]3C[C@H]3c3ccccc3)CC2)cc1 [GSK2879552] | 5.92 |  | < 4.00 | < 4.00 |  |  |  |  |  |  | 5.94 | Not Active
